Experiments:
Test in all cases: NCI-60 screen (SRB)
Format in all cases: cell-based
A498 = A498 (Renal)
Protocol: (§1) The human tumor cell lines of the cancer screening panel are grown in RPMI 1640 medium containing 5% fetal bovine serum and 2 mM L-glutamine. For a typical screening experiment, cells are inoculated into 96 well microtiter plates in 100 μL at plating densities ranging from 5,000 to 40,000 cells/well depending on the doubling time of individual cell lines. After cell inoculation, the microtiter plates are incubated at 37° C., 5% CO2, 95% air and 100% relative humidity for 24 h prior to addition of experimental drugs.
(§2) After 24 h, two plates of each cell line are fixed in situ with TCA, to represent a measurement of the cell population for each cell line at the time of drug addition (Tz). Experimental drug is solubilized in dimethyl sulfoxide at 400-fold the desired final maximum test concentration and stored frozen prior to use. At the time of drug addition, an aliquot of frozen concentrate is thawed and diluted to twice the desired final maximum test concentration with complete medium containing 50 μg/ml gentamicin. Additional four, 10-fold or ½ log serial dilutions are made to provide a total of five drug concentrations plus control. Aliquots of 100 μl of these different drug dilutions are added to the appropriate microtiter wells already containing 100 μl of medium, resulting in the required final drug concentrations.
(§3) Following drug addition, the plates are incubated for an additional 48 h at 37° C., 5% CO2, 95% air, and 100% relative humidity. For adherent cells, the assay is terminated by the addition of cold TCA. Cells are fixed in situ by the gentle addition of 50 μl of cold 50% (w/v) TCA (final concentration, 10% TCA) and incubated for 60 minutes at 4° C. The supernatant is discarded, and the plates are washed five times with tap water and air dried. Sulforhodamine B (SRB) solution (100 μl) at 0.4% (w/v) in 1% acetic acid is added to each well, and plates are incubated for 10 minutes at room temperature. After staining, unbound dye is removed by washing five times with 1% acetic acid and the plates are air dried. Bound stain is subsequently solubilized with 10 mM trizma base, and the absorbance is read on an automated plate reader at a wavelength of 515 nm. For suspension cells, the methodology is the same except that the assay is terminated by fixing settled cells at the bottom of the wells by gently adding 50 μl of 80% TCA (final concentration, 16% TCA). Using the seven absorbance measurements [time zero, (Tz), control growth, (C), and test growth in the presence of drug at the five concentration levels (Ti)], the percentage growth is calculated at each of the drug concentrations levels.
(§4) Percentage growth inhibition is calculated as: [(Ti−Tz)/(C−Tz)]×100 for concentrations for which Ti>/=Tz (1) [(Ti−Tz)/Tz]×100 for concentrations for which Ti<Tz (2)
(§5) Growth inhibition of 50% (GI50) is calculated from [(Ti−Tz)/(C−Tz)]×100=50 (3)
(§6) which is the drug concentration resulting in a 50% reduction in the net protein increase (as measured by SRB staining) in control cells during the drug incubation.
(§7) The drug concentration resulting in total growth inhibition (TGI) is calculated from Ti=Tz (4)
(§8) The LC50 (concentration of drug resulting in a 50% reduction in the measured protein at the end of the drug treatment as compared to that at the beginning) indicating a net loss of cells following treatment is calculated from [(Ti−Tz)/Tz]×100=−50 (5)
(§9) Values are calculated for each of these three parameters if the level of activity is reached; however, if the effect is not reached or is exceeded, the value for that parameter is expressed as greater or less than the maximum or minimum concentration tested.

ACHN = ACHN (Renal)
Protocol: as §1, §2, §3, §4, §5, §6, §7, §8, §9

HS 578T = HS 578T (Breast)
Protocol: as §1, §2, §3, §4, §5, §6, §7, §8, §9

IGROVI = IGROVI (Ovarian)
Protocol: as §1, §2, §3, §4, §5, §6, §7, §8, §9

KM12 = KM12 (Colon)
Protocol: as §1, §2, §3, §4, §5, §6, §7, §8, §9

MALME-3M = MALME-3M (Melanoma)
Protocol: as §1, §2, §3, §4, §5, §6, §7, §8, §9

MDA-MB-231/ATCC = MDA-MB-231/ATCC (Breast)
Protocol: as §1, §2, §3, §4, §5, §6, §7, §8, §9

MDA-MB-435 = MDA-MB-435 (Melanoma)
Protocol: as §1, §2, §3, §4, §5, §6, §7, §8, §9

MDA-MB-468 = system: MDA-MB-468
Protocol: as §1, §2, §3, §4, §5, §6, §7, §8, §9

NCI-H522 = NCI-H522 (Non-Small Cell Lung)
Protocol: as §1, §2, §3, §4, §5, §6, §7, §8, §9

NCI/ADR-RES = NCI/ADR-RES (Ovarian)
Protocol: as §1, §2, §3, §4, §5, §6, §7, §8, §9

RXF393 = RXF393 (Renal)
Protocol: as §1, §2, §3, §4, §5, §6, §7, §8, §9

SF-268 = SF-268 (CNS)
Protocol: as §1, §2, §3, §4, §5, §6, §7, §8, §9

SF-295 = SF-295 (CNS)
Protocol: as §1, §2, §3, §4, §5, §6, §7, §8, §9

SF-539 = SF-539 (CNS)
Protocol: as §1, §2, §3, §4, §5, §6, §7, §8, §9

SK-MEL-2 = SK-MEL-2 (Melanoma)
Protocol: as §1, §2, §3, §4, §5, §6, §7, §8, §9

SW-620 = SW-620 (Colon)
Protocol: as §1, §2, §3, §4, §5, §6, §7, §8, §9

[1] = Homo sapiens, read-out: LC50 (the source's name)

CCN(CC)C1CCN(C(C)c2cc(-c3ccccc3)nc3ccccc23)CC1.Cl.Cl (stereo not drawn) [XIX-3, 2-phenyl-4-{1-[4-(N,N-diethylamino)piperidin-1-yl]-eth-1-yl}quinoline dihydrochloride]
TGI (A498): 20 µM | Growth percent at 10 μM (A498): ++ (cell growth 40 > % < 60) | GI50 (A498; Homo sapiens): 5 µM | LC50 (A498; Homo sapiens): 54 µM | TGI (ACHN): 23 µM | Growth percent at 10 μM (ACHN): + (cell growth 60 > % < 80) | GI50 (ACHN; Homo sapiens): 11 µM | LC50 (concentration causing 50% net cell kill) (ACHN; Homo sapiens): 50 µM | TGI (HS 578T): 35 µM | Growth percent at 10 μM (HS 578T): + (cell growth 60 > % < 80) | GI50 (HS 578T; Homo sapiens): 11 µM | LC50 (concentration killing 50% of cells) (HS 578T; Homo sapiens): 100 µM | GI50 (IGROVI; Homo sapiens): 5 µM | CC50 (IGROVI; [1]): 63 µM | TGI (IGROVI): 21 µM | Growth percent at 10 μM (IGROVI): ++ (cell growth 40 > % < 60) | GI50 (KM12; Homo sapiens): 10 µM | CC50 (KM12; [1]): 50 µM | TGI (KM12): 22 µM | Growth percent at 10 μM (KM12): ++ (cell growth 40 > % < 60) | GI50 (MALME-3M; Homo sapiens): 2 µM | CC50 (MALME-3M; [1]): 7 µM | TGI (MALME-3M): 4 µM | Growth percent at 10 μM (MALME-3M): ×× (cell growth −20 > % < −40) | GI50 (MDA-MB-231/ATCC; Homo sapiens): 3 µM | CC50 (MDA-MB-231/ATCC; [1]): 47 µM | TGI (MDA-MB-231/ATCC): 14 µM | Growth percent at 10 μM (MDA-MB-231/ATCC): ++ (cell growth 40 > % < 60) | GI50 (MDA-MB-435; Homo sapiens): 2 µM | CC50 (MDA-MB-435; [1]): 14 µM | TGI (MDA-MB-435): 5 µM | Growth percent at 10 μM (MDA-MB-435): ++++ (cell growth % < 20) | CC50 (MDA-MB-468; Homo sapiens, MDA-MB-468, read-out: LC50): 38 µM | GI50 (MDA-MB-468; Homo sapiens, MDA-MB-468 (Breast)): 3 µM | TGI (MDA-MB-468; MDA-MB-468 (Breast)): 10 µM | Growth percent at 10 μM (MDA-MB-468; MDA-MB-468 (Breast)): +++ (cell growth 20 > % < 40) | GI50 (NCI-H522; Homo sapiens): 15 µM | CC50 (NCI-H522; [1]): 66 µM | TGI (NCI-H522): 32 µM | Growth percent at 10 μM (NCI-H522): +++ (cell growth 20 > % < 40) | GI50 (NCI/ADR-RES; Homo sapiens): 12 µM | LC50 (concentration giving 50% net cell kill) (NCI/ADR-RES; Homo sapiens): 56 µM | TGI (NCI/ADR-RES): 26 µM | Growth percent at 10 μM (NCI/ADR-RES): + (cell growth 60 > % < 80) | GI50 (RXF393; Homo sapiens, RXF 393): 4 µM | CC50 (RXF393; Homo sapiens, RXF 393, read-out: LC50 (the source's name)): 17 µM | TGI (RXF393): 17 µM | GI50 (SF-268; Homo sapiens): 10 µM | CC50 (SF-268; [1]): 55 µM | TGI (SF-268): 24 µM | Growth percent at 10 μM (SF-268): + (cell growth 60 > % < 80) | GI50 (SF-295; Homo sapiens): 4 µM | CC50 (SF-295; [1]): 48 µM | TGI (SF-295): 15 µM | Growth percent at 10 μM (SF-295): − (cell growth % > 80) | GI50 (SF-539; Homo sapiens): 11 µM | CC50 (SF-539; [1]): 50 µM | TGI (SF-539): 23 µM | Growth percent at 10 μM (SF-539): ++ (cell growth 40 > % < 60) | GI50 (SK-MEL-2; Homo sapiens): 3 µM | CC50 (SK-MEL-2; [1]): 27 µM | TGI (SK-MEL-2): 7 µM | Growth percent at 10 μM (SK-MEL-2): ++ (cell growth 40 > % < 60) | GI50 (SW-620; Homo sapiens): 4 µM | CC50 (SW-620; [1]): 45 µM | TGI (SW-620): 17 µM | Growth percent at 10 μM (SW-620): ++ (cell growth 40 > % < 60)

CC(C)(C)NC1CCN(c2cc(-c3ccc(Cl)cc3)nc3ccccc23)CC1.Cl.Cl [XII-4, 2-(4-chloro-phenyl)-4-(4-N-tert-butylamino-piperidin-1-yl)quinoline dihydrochloride]
Growth percent at 10 μM (A498): +++ (cell growth 20 > % < 40) | Growth percent at 10 μM (ACHN): + (cell growth 60 > % < 80) | Growth percent at 10 μM (HS 578T): + (cell growth 60 > % < 80) | Growth percent at 10 μM (IGROVI): ++ (cell growth 40 > % < 60) | Growth percent at 10 μM (KM12): + (cell growth 60 > % < 80) | Growth percent at 10 μM (MALME-3M): ××× (cell growth −40 < % > −60) | Growth percent at 10 μM (MDA-MB-231/ATCC): ×× (cell growth −20 < % > −40) | Growth percent at 10 μM (MDA-MB-435): ++++ (cell growth 0 > % < 20) | Growth percent at 10 μM (MDA-MB-468; MDA-MB-468 (Breast)): ×× (cell growth −20 < % > −40) | Growth percent at 10 μM (NCI-H522): + (cell growth 60 > % < 80) | Growth percent at 10 μM (NCI/ADR-RES): + (cell growth 60 > % < 80) | Growth percent at 10 μM (RXF393; 10 μM): +++ (cell growth 20 > % < 40) | Growth percent at 10 μM (SF-268): + (cell growth 60 > % < 80) | Growth percent at 10 μM (SF-295): − (cell growth % > 80) | Growth percent at 10 μM (SF-539): ++ (cell growth 40 > % < 60) | Growth percent at 10 μM (SK-MEL-2): − (cell growth % > 80) | Growth percent at 10 μM (SW-620): ++++ (cell growth 0 > % < 20)
